{
  "source": "paper PMC5025885",
  "about": "“Identification of Doxorubicin as an Inhibitor of the IRE1α-XBP1 Axis of the Unfolded Protein Response” (Scientific Reports, 2016)",
  "molecular_target": "T1, IRE1α (Homo sapiens, UniProt O75460)",
  "T1 construct": "gene ERN1",
  "T1 sequence (O75460 19-977)": "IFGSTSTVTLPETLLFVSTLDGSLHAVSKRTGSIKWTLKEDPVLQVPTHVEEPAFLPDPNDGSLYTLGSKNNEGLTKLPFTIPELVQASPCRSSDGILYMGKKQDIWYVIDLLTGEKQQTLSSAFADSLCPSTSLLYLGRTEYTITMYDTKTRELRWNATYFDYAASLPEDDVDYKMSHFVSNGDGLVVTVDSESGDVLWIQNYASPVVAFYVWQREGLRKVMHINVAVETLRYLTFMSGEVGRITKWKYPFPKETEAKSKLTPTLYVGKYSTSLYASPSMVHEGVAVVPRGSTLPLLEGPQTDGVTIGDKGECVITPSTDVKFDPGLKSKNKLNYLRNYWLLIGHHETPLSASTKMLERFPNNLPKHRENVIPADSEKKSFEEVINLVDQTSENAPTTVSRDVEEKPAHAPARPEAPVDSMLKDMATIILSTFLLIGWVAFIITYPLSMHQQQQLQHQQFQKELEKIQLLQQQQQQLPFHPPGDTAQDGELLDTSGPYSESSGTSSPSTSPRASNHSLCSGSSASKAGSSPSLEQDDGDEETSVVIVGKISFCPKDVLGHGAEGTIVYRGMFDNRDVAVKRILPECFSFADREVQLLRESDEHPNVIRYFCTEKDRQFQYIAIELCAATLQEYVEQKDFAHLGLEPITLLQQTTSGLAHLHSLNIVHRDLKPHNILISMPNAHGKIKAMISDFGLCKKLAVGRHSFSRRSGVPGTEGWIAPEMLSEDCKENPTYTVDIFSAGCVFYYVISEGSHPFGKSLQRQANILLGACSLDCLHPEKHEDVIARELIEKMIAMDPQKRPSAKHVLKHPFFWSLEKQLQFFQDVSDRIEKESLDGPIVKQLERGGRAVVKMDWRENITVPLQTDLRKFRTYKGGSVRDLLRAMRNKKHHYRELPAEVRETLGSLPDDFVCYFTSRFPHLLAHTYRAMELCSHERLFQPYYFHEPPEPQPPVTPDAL",
  "experiment": "cell-free in vitro IRE1α RNase assay on XBP1 and BLOC1S1 RNA substrates",
  "format": "biochemical",
  "data": [
    {"smiles": "COc1cccc2c1C(=O)c1c(O)c3c(c(O)c1C2=O)C[C@@](O)(C(=O)CO)C[C@@H]3O[C@H]1C[C@H](N)[C@H](O)[C@H](C)O1", "note": "[doxorubicin]", "values": [
      {"measurement": "IC50", "result": "~20", "unit": "µM"}
    ]}
  ]
}
